The record followed here is US20190338284A1, “COMPLEX FOR DRUG DELIVERY AND STABILIZATION AND PREPARATION METHOD THEREOF” (INTEROLIGO CORPORATION, priority 2016, published 2019).

Entries after “also recorded” stand apart in the source; their conditions may differ.

Format in all cases: cell-based, human
The subject of data set [1] is BxPC3, Miapaca-2, Panc-1 and capan-1 pancreatic cancer cell lines. The experiment in a line: WST-1 assay of aptamer-drug conjugate on pancreatic cancer cell lines. As to conditions: WST-1, 0.1 to 100 μM, 72 hours; listed as AS1411 aptamer. The protocol: WST-1 assay for pancreatic cancer cell lines, i.e., BxPC3, Miapaca-2, Panc-1 and capan-1 was performed. Cell inhibition efficacy validation of AS1411-Gem conjugate to the pancreatic cancer cell lines was performed in vitro through WST-1 assay. First, a control aptamer CRO in a naked form without being combined with an anticancer agent, AS1411 having a cancer cell-targeting function, as well as CRO-Gem conjugate and AS1411-Gem conjugate which are combined with an anticancer agent effective to pancreatic cancer, i.e., gemcitabine, respectively, were prepared (Table 2).
Experimental procedure: Each of the pancreatic cancer cell lines, that is, B×PC3, Miapaca-2, Panc-1 and capan-1 (ATCC, RPMI+10% FBS), was seeded on a 96-well plate in a cell number of 1 to 2×10^4 cells/well, which was defined by a cell test method to determine an appropriate cell concentration, followed by growing for 1 day. The aptamer and aptamer-drug conjugate were dissolved in PBS, respectively, and were immediately treated in each well at concentrations from 0.1 μM up to 100 μM. The treated cells were incubated in a 5% CO2 incubator for 72 hours, treated with 10 μl of a reagent solution for WST-1 assay (WST-1, Roche), respectively, followed by measuring the absorbance at 440 nm using an ELISA reader (FIG. 13).

The subject of data set [2] is BT-474 and MCF-7 breast cancer cell lines. As to the kind of experiment: WST-1 assay of ERBB2 aptamer-siRNA conjugate on breast cancer cell lines. The method, then:
In addition, WST-1 assay for the breast cancer cell lines, i.e., BT-474 and MCF-7, was performed. Cell inhibition efficacy validation of ERBB2 aptamer to the breast cancer cell lines was performed in vitro through WST-1 assay. After treating the breast cancer cell lines with a control ERBB2 aptamer without activity, as well as ERBB2 aptamer-siRNA conjugate wherein an effective anticancer agent having excellent anticancer efficacy, that is, siRNA is bound to ERBB2 target aptamer having a cancer cell targeting function, respectively, WST-1 assay was performed.

Data set [3] shares this test system. As to the kind of experiment: WST-1 assay of atelocollagen-[ERBB2 aptamer-siRNA conjugate] complex on breast cancer cell lines. The method, then:
Cell inhibition efficacy validation of atelcollagen-[ERBB2 aptamer-siRNA conjugate] complex to breast cancer cell lines, i.e., BT-474 and MCF-7, was performed in vitro through WST-1 assay. After treating the breast cancer cell lines with naked ERBB2, atelocollagen-[control aptamer-siRNA conjugate] complex without activity, as well as atelocollagen-[ERBB2 aptamer-siRNA conjugate] complex wherein an effective anticancer agent having excellent anticancer efficacy, that is, siRNA is bound to ERBB2 target aptamer having a cancer cell targeting function, respectively, WST-1 assay was performed.
Background: Tetrazolium assays rely on reduction of a dye to a coloured formazan, in cell work by metabolically active cells.

With “TTTGGTGGTGGTGGTTGTGGTGGTGGTGG (SEQ ID NO: 3) [AS1411]”, in data set [1], the “cell viability and proliferation, comparison of efficacy” value is listed as “much better efficacy than CRO; also recorded: more excellent efficacy than the case of treatment using the original anticancer agent, that is, gemcitabine alone”.
For “ERBB2 aptamer-siRNA conjugate (chain 1 AGCUGUCACAGAGGGGCUACUU; chain 2 GUAGCCCCUCUGUGACAGCUU; siRNA conjugated to ERBB2 aptamer, further chemistry not given here)”, the “cell viability and proliferation, comparison of efficacy” value in data set [2] is recorded as “much better efficacy than the ERBB2 aptamer”; in data set [3] it was “much better efficacy than the control group”.
